# Measurements as given in publication PMC11285769, “A pan-respiratory antiviral chemotype targeting a transient host multi-protein complex” (Open Biology, 2024).
# Entries after “also recorded” stand apart in the source; their conditions may differ. Where two headings read alike, the source gives them in different places.
# How the values were obtained:
# FLUV A/WSN/33 = test: microbe, parasite or virus in culture; type: cell-based, influenza A/WSN/33; conditions: Influenza A virus, MDCK; for IC50: read-out: IC50 (figure 2a)
# BoCoV BRCV-OK-0514-2 = test: microbe, parasite or virus in culture; type: cell-based, bovine coronavirus; conditions: Betacoronavirus 1
# MHV-68 = test: microbe, parasite or virus in culture; conditions: Murine herpesvirus, BHK-21
# [1] = test system: FLUV nucleoprotein capsid assembly; type: biochemical, influenza (FLUV)
# HRV-16 = test: HRV assay in H1-HeLa cells by TCID50; type: cell-based, human rhinovirus 16; conditions: Rhinovirus A
# [2] = test system: porcine epidemic diarrhoea virus (PEDV); test: PEDV pig study; type: in vivo; conditions: newborn pigs infected with PEDV, 4 mg kg^−1 intramuscular, relative to control
# Experimental: 18 litters comprised of 91 individuals of newborn (2–4 days old) crossbred pigs weighing 3 kg were randomized to control (vehicle) or treatment groups. Animals were infected with 1 × 10^5 PFU of PEDV administered orally. Vehicle or drug was administered intramuscular at 4 mg kg^−1 immediately after challenge and again 24 h post-infection. Compound efficacy was determined by survivability. Endpoint of study was 6 days post-infection.
# RSV A-2 virus = test: RSV cotton rat study; type: in vivo; conditions: cotton rats, 2 mg kg^−1 IP twice daily, days −1 to 4, plaque assay
# Experimental: Female cotton rats, approximately 5 weeks of age, were obtained from Envigo (formerly Harlan), ear-tagged for identification purposes, and allowed to acclimate for >1 week prior to study start. Animals were housed individually. Vehicle or drug (2 mg kg^−1) was administered by an intraperitoneal route twice daily on study days −1 through day 4. On day 0, animals were infected with 1 × 10^5 PFU of RSV A-2 virus originally obtained from ATCC (VR-1540), administered in a 50 µl volume by an intranasal route approximately 2 h after the morning treatment dose. Back titration of the viral stock and diluted inoculum was performed to confirm the titre of the RSV stock used for infection. All inoculations were performed while the animals were under the influence of inhalant anaesthesia. All animals were euthanized on day 5 and the lungs were processed for determination of RSV titres by plaque assay.
# 5-HT2B = 5-HT2B (Homo sapiens, UniProt P41595); test: CEREP panel off-target: 5-HT2B; conditions: high concentrations
# p62/SQSTM1 = type: cell-based
# [3] = test system: swine influenza virus SIC/SK WT; test: microbe, parasite or virus in culture; type: cell-based; conditions: MDCK, read-out: PAV-431 EC50
# [4] = test system: members of Orthomyxoviridae, Coronaviridae, Paramyxoviridae, Adenoviridae, Herpesviridae and Picornaviridae; test: microbe, parasite or virus in culture; type: cell-based; conditions: Orthoherpesviridae, read-out: EC50 across six respiratory viral families
# [5] = Pharmacokinetics, tissue uptake and safety in rats; conditions: 5 mg kg^−1 IP
# 14-3-3 zeta (YWHAZ) = 14-3-3 zeta (YWHAZ) (Homo sapiens, UniProt P63104); type: binding
# SARS-CoV-2 WA1/2020 = test: microbe, parasite or virus in culture; type: cell-based
# [6] = rat, in vivo
# [7] = test system: adenovirus serotype 5 strain adenoid 65; test: microbe, parasite or virus in culture; type: cell-based; conditions: unidentified adenovirus, A549, read-out: PAV-431 EC50
# in vivo = conditions: rat
# [8] = test system: respiratory synctial virus straine A-2; test: microbe, parasite or virus in culture; type: cell-based; conditions: human respiratory syncytial virus, HEp-2, read-out: PAV-431 EC50
# rabies virus CVS-11 = test: microbe, parasite or virus in culture; type: cell-based
# Nipah virus rNiV-ZsG = test: microbe, parasite or virus in culture; type: cell-based
# hERG channel = hERG channel (Homo sapiens, UniProt Q12809); test: hERG channel inhibition
# bovine coronavirus = test: microbe, parasite or virus in culture; type: cell-based; conditions: Betacoronavirus 1, read-out: PAV-431 EC50
# [9] = test system: human cytomegalovirus strain AD69; test: microbe, parasite or virus in culture; type: cell-based; conditions: Human betaherpesvirus 5, H1-HeLa, read-out: PAV-431 EC50
# [10] = read-out: EC50 against infectious FLUV
# [11] = HRV16, HRV-16, MOI = 5, H1-HeLa cells, TCID50, read-out: EC50
# 5-HT2B, sequence (P41595 whole entry, species assumed): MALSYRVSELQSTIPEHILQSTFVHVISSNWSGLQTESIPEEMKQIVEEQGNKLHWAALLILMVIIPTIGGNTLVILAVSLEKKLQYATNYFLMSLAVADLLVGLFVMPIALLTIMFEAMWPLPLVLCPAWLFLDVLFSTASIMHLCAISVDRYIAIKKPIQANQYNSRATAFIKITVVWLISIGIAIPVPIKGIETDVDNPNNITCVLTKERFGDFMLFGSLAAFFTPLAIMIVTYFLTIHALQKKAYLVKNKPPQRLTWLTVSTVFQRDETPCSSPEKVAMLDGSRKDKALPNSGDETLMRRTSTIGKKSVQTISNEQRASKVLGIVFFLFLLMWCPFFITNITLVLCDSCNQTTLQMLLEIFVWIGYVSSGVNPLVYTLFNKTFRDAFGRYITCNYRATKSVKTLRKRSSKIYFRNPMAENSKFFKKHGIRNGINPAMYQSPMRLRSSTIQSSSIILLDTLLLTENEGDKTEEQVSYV
# hERG channel, sequence (Q12809 whole entry): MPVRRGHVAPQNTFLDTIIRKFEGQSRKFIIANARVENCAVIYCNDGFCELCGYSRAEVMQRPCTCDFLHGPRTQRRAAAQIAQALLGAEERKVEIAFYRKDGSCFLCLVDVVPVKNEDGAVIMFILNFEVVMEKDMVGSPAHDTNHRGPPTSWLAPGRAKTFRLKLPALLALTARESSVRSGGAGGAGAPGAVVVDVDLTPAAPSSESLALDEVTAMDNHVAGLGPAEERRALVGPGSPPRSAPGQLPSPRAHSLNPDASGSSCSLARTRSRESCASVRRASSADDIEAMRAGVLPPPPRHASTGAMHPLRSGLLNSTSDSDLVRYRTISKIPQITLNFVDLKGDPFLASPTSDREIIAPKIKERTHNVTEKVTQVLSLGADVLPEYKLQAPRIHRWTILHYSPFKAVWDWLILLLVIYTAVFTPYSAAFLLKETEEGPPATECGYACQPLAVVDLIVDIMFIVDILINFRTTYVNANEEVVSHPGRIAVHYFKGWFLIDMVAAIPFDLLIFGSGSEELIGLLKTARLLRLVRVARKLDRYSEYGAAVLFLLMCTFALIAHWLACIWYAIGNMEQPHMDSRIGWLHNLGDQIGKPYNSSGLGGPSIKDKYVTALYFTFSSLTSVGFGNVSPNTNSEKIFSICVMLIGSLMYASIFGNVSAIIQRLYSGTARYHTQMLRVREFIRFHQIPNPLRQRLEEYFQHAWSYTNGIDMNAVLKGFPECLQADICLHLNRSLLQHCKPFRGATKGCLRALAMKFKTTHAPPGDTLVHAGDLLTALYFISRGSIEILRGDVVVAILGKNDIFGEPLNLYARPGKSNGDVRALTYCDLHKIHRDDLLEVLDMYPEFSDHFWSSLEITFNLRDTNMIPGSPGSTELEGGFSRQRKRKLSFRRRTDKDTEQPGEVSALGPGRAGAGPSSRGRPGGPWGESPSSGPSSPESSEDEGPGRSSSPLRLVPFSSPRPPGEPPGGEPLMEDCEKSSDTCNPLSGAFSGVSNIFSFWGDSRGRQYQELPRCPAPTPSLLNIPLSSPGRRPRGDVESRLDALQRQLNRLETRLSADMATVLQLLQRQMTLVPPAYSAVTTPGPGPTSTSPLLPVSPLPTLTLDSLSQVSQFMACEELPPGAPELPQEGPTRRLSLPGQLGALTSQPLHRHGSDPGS
# 14-3-3 zeta (YWHAZ), sequence (P63104 whole entry): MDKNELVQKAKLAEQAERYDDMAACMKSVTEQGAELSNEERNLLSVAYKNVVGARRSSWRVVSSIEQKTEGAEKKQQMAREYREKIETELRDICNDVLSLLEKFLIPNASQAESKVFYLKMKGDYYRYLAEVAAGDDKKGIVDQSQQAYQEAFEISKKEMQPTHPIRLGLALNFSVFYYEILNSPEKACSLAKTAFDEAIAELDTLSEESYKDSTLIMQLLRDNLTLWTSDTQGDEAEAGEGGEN
smiles,measurement,setting,value
COc1cccc(CNC(=O)c2cc(C3CC3)nn2C)c1OC [PAV-835],EC50,FLUV A/WSN/33,< 1000 nM
same,EC50,FLUV A/WSN/33; [10],42 nM
same,IC50,FLUV A/WSN/33,14.8 nM
same,EC50,BoCoV BRCV-OK-0514-2,< 1000 nM
same,EC50,MHV-68,< 1000 nM
same,assembly of FLUV nucleoprotein into a completed capsid,[1],blocked assembly of FLUV nucleoprotein into a completed capsid in a dose-dependent manner
same,EC50,HRV-16; [11],< 1000 nM
same,likelihood of survival,[2],significantly increased the likelihood of survival
COc1c(CNC(=O)c2cc(C3CC3)nn2C)cccc1OC(F)(F)F [PAV-431],RSV titre in lungs relative to vehicle,RSV A-2 virus,significant drop in viral titre; also recorded: small but statistically significant drop in RSV titre
same,EC50,FLUV A/WSN/33; read-out: PAV-431 EC50,25 nM
same,off-target effect at 5-HT2B,5-HT2B,potential off-target effects at high concentrations could be relevant
same,amount of p62 in eluate,p62/SQSTM1,restored with PAV-431 treatment
same,EC50,[3],25 nM
same,EC50,[4],≤ 100 nM
same,safety of dose,[5],found to be safe
same,14-3-3 binding from PAV-104 resin flowthrough,14-3-3 zeta (YWHAZ),a substantial amount of the 14-3-3 in the PAV-104 resin flowthrough bound to the PAV-431 resin
same,efficacy against SARS-CoV-2 WA 1/2020,SARS-CoV-2 WA1/2020,significant efficacy
same,EC50,"SARS-CoV-2 WA1/2020; Severe acute respiratory syndrome coronavirus 2, Vero C1008, read-out: PAV-431 EC50",100 nM
same,clearance,[6],quick clearing tendency
same,distribution in brain,[6],good distribution in brain and lungs
same,distribution in lungs,[6],good distribution in brain and lungs
same,distribution in plasma,[6],good distribution in plasma
same,volume of distribution,[6],better volume of distribution than PAV-104
same,concentration in lungs,[6]; ip,167 nM
same,concentration in plasma,[6]; ip,108 nM
same,"levels obtained, oral route",[6]; po,too low to analyse the PK properties
same,EC50,[7],< 100 nM
same,bioavailability,in vivo,59%
same,EC50,[8],< 25 nM
same,activity against rabies virus,rabies virus CVS-11,did not show significant activity against rabies virus
same,EC50,"rabies virus CVS-11; Rabies virus CVS-11, read-out: PAV-431 EC50",> 400 nM
same,activity against Nipah virus,Nipah virus rNiV-ZsG,comparably potent
same,EC50,"Nipah virus rNiV-ZsG; Henipavirus nipahense, read-out: PAV-431 EC50",≤ 50 nM
same,hERG channel inhibition,hERG channel,negative for hERG channel inhibition
same,EC50,bovine coronavirus,50 nM
same,EC50,"HRV-16; HRV16, H1-HeLa, read-out: PAV-431 EC50",< 20 nM
same,EC50,[9],25 nM
COc1cccc(CNC(=O)c2cc(C(C)(C)C)nn2C)c1OC [PAV-773],EC50,FLUV A/WSN/33,< 1000 nM
same,EC50,FLUV A/WSN/33; [10],177 nM
same,IC50,FLUV A/WSN/33,176 nM
same,EC50,BoCoV BRCV-OK-0514-2,< 1000 nM
same,EC50,MHV-68,< 1000 nM
same,assembly of FLUV nucleoprotein into a completed capsid,[1],blocked assembly of FLUV nucleoprotein into a completed capsid in a dose-dependent manner
same,EC50,HRV-16; [11],< 1000 nM
same,likelihood of survival,[2],significantly increased the likelihood of survival
